Data set [1] has as its target Metallo-beta-lactamase type 2 (Bacteria) (UniProt C7C422). The experiment in a line: Inhibition of NDM-1 (unknown origin) at 10 uM relative to control.
The test system of data set [2] is Bacteria. The experiment in a line: Inhibition of AIM-1 (unknown origin) at 10 uM relative to control.
Data set [3] has as its system Escherichia coli. The data set can be described thus: Synergistic antibacterial activity against Escherichia coli expressing AIM-1 in presence of meropenem by checkerboard sensitivity assay. The class given is functional, organism-based.
For data set [4], the system named is Escherichia coli. The data set can be described thus: Synergistic antibacterial activity against Escherichia coli expressing CphA in presence of penicillin G by checkerboard sensitivity assay. In kind it is functional, organism-based.
For data set [5], the system named is Bacteria. The experiment in a line: Uncompetitive inhibition of AIM-1 (unknown origin) using cefuroxime as substrate by Michaelis-Menten equation based kinetic analysis.
The subject of data set [6] is Escherichia coli. The experiment in a line: Synergistic antibacterial activity against Escherichia coli expressing NDM-1 in presence of cefuroxime by checkerboard sensitivity assay. The class given is functional, organism-based.
Data set [7] relates to Bacteria. The experiment in a line: Competitive inhibition of AIM-1 (unknown origin) using cefuroxime as substrate by Michaelis-Menten equation based kinetic analysis.
Data set [8] has as its system Escherichia coli. The experiment in a line: Synergistic antibacterial activity against Escherichia coli expressing AIM-1 in presence of cefuroxime by checkerboard sensitivity assay. The class given is functional, organism-based.
In data set [9] the test system is Escherichia coli. The data set can be described thus: Antagonistic antibacterial activity against Escherichia coli expressing AIM-1 in presence of penicillin G by checkerboard sensitivity assay. The class given is functional, organism-based.
Data set [10] in a line: Inhibition of CphA (unknown origin) using meropenem as substrate. Details: species or system Bacteria.
Data set [11] concerns Escherichia coli. The data set can be described thus: Antagonistic antibacterial activity against Escherichia coli expressing NDM-1 in presence of meropenem by checkerboard sensitivity assay. The class given is functional, organism-based.
Data set [12] relates to Escherichia coli. The experiment in a line: Synergistic antibacterial activity against Escherichia coli expressing CphA in presence of meropenem by checkerboard sensitivity assay. The class given is functional, organism-based.
In data set [13] the test system is Escherichia coli. The experiment in a line: Synergistic antibacterial activity against Escherichia coli expressing NDM-1 in presence of penicillin G by checkerboard sensitivity assay. In kind it is functional, organism-based.
The target in data set [14] is Metallo-beta-lactamase type 2 (Bacteria) (UniProt C7C422). The data set can be described thus: Competitive inhibition of NDM-1 (unknown origin) using penicillin G as substrate by Michaelis-Menten equation based kinetic analysis.
The subject of data set [15] is Escherichia coli. The data set can be described thus: Synergistic antibacterial activity against Escherichia coli expressing CphA in presence of cefuroxime by checkerboard sensitivity assay. The class given is functional, organism-based.
For data set [16], the target named is Metallo-beta-lactamase type 2 (Bacteria) (UniProt C7C422). The data set can be described thus: Uncompetitive inhibition of NDM-1 (unknown origin) using penicillin G as substrate by Michaelis-Menten equation based kinetic analysis.
Data set [17] has as its system Escherichia coli. The experiment in a line: Antagonistic antibacterial activity against Escherichia coli expressing AIM-1 in presence of meropenem by checkerboard sensitivity assay. In kind it is functional, organism-based.
Data set [18] concerns Escherichia coli. The experiment in a line: Antagonistic antibacterial activity against Escherichia coli expressing AIM-1 in presence of cefuroxime by checkerboard sensitivity assay. In kind it is functional, organism-based.
A short description of data set [19]: Stability of the compound in NaBH4/ethanol assessed as oxidation measured after 24 hrs at room temperature. The class given is physicochemical.
Data set [20] deals with Escherichia coli. The experiment in a line: Synergistic antibacterial activity against Escherichia coli expressing AIM-1 in presence of penicillin G by checkerboard sensitivity assay. In kind it is functional, organism-based.

The source made the active and inactive calls. The rule behind the calls is not given here.

Chain of Metallo-beta-lactamase type 2 (Bacteria) (C7C422 whole entry): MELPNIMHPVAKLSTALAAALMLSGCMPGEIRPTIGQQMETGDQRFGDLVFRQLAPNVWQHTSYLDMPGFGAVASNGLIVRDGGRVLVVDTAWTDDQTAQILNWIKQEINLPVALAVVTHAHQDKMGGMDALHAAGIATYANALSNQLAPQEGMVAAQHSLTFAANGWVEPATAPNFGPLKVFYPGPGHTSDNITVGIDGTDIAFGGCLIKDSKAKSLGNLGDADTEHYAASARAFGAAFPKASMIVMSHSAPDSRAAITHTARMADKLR

Take `CC(=O)Nc1ccc(/C=N/c2c(C#N)c(-c3ccccc3)c(-c3ccccc3)n2Cc2ccccc2)cc1`: the values for the inhibition in data set [1] and in data set [2] were 14% and 10%, respectively.

Consider `N#Cc1c(-c2ccccc2)c(-c2ccccc2)n(Cc2ccccc2)c1/N=C/c1ccc(O)cc1`, for which the result in data set [3], in data set [4], in data set [6], in data set [8], in [9] and in [11] was Active. Besides, the result in data set [12], in data set [13] and in data set [15] was Active. Also, the Kiuc in data set [5] was found to be 4.7 µM; in data set [16], 0.9 µM. Moreover, the inhibition in data set [1] worked out at 49%; in data set [2], 61%. In addition, the results for the Kic in data set [7] and in data set [14] were 4.4 µM and 1.3 µM, respectively. In [10], this compound showed a half-inhibitory concentration (IC50) of 45 µM.

Consider `N#Cc1c(-c2ccccn2)c(-c2ccccn2)n(Cc2ccccc2)c1N`, for which the inhibition result in [1] and in data set [2] was “inactive” throughout.

In the case of `N#Cc1c(-c2ccc(C(=O)O)cc2)c(-c2ccc(C(=O)O)cc2)n(Cc2ccccc2)c1N`, the inhibition entry in data set [1] and in data set [2] was “inactive” throughout.

For the compound `N#Cc1c(-c2ccccc2)c(-c2ccccc2)n(Cc2ccccc2)c1/N=C/c1cccs1`, the result in [4], in data set [6], in data set [9], in data set [17], in data set [11] and in data set [18] was Active. For the same compound, the result in [12], in [13] and in data set [15] was Active. Further, the Kiuc turned out to be 35 µM in data set [5] and 11 µM in data set [16]. For the same compound, the inhibition in data set [1] amounted to 57%; in data set [2] it was 42%. Also, the figures for the Kic in [7] and in [14] were 4.5 µM and 1.7 µM, respectively. The compound further returned an IC50 in data set [10] of 57 µM.

In the case of `N#Cc1c(-c2ccccc2)c(-c2ccccc2)n(Cc2ccccc2)c1/N=C/c1ccc([N+](=O)[O-])cc1`, the inhibition in [1] is 45%; in data set [2], 40%.

On to `N#Cc1c(-c2ccccc2)c(-c2ccccc2)n(Cc2ccccc2)c1/N=C/c1cccnc1`, for which the inhibition in data set [1] was determined as 28%; in data set [2] it was 11%.

For `COC(=O)c1ccc(/C=N/c2c(C#N)c(-c3ccccc3)c(-c3ccccc3)n2Cc2ccccc2)cc1`, the Kiuc came out at 72 µM in [5] and 4.4 µM in [16]. In addition, the results for the inhibition in data set [1] and in [2] were 27% and 19%, respectively. The Kic in data set [7] worked out at 6.4 µM; in data set [14], 34 µM.

Consider `N#Cc1c(-c2ccccc2)c(-c2ccccc2)n(Cc2ccccc2)c1/N=C/c1ccc(C(=O)O)cc1`, for which the inhibition is 40% in [1] and 39% in data set [2].

With `N#Cc1c(-c2ccccc2)c(-c2ccccc2)n(Cc2ccccc2)c1/N=C/c1ccc2ccccc2c1`, the inhibition in data set [1] worked out at 50%; in data set [2] it was 26%.

Regarding `COC(=O)c1ccc(-c2c(C#N)c(N)n(Cc3ccccc3)c2-c2ccc(C(=O)OC)cc2)cc1`, the inhibition result in [1] and in [2] was “inactive” in each case.

For `N#Cc1c(-c2ccccc2)c(-c2ccccc2)n(Cc2ccccc2)c1NCc1ccccc1`, the inhibition was found to be 41% in data set [1] and 32% in data set [2]. In addition, the Stability entry in data set [19] is “Stable”. Further, in [16], the Kiuc is 2.7 µM.

For `N#Cc1c(-c2ccccc2)c(-c2ccccc2)n(Cc2ccccc2)c1/N=C/c1ccccc1`, the outcome in [3], in [4], in data set [6], in data set [8], in [9] and in data set [11] was Active. Also, the result in data set [12], in data set [13] and in data set [15] was Active. The Kiuc in data set [5] was 11 µM; in data set [16], 6 µM. Also, the inhibition in data set [1] was 38%; in data set [2] it was 42%. The results for the Kic in [7] and in data set [14] were 3.6 µM and 3.2 µM, respectively. For the same compound, 75 µM corresponded to half-maximal inhibition in data set [10] (IC50).

Turning to `N#Cc1c(-c2ccccc2)c(-c2ccccc2)n(Cc2ccccc2)c1NC(=O)c1ccccc1`, the outcome in data set [4], in [6], in data set [17], in data set [11], in [18] and in data set [12] was Active. For the same compound, the result in data set [20], in [13] and in data set [15] was Active. For the same compound, the values for the Kiuc in data set [5] and in [16] were 19 µM and 5 µM, respectively. Further, the inhibition in data set [1] came to 47%; in [2] it was 42%. The Kic in data set [7] was determined as 11 µM; in data set [14] it was 9 µM.

For the compound `N#Cc1c(-c2ccccc2)c(-c2ccccc2)n(Cc2ccccc2)c1NCc1cccs1`, the inhibition in data set [1] was determined as 29%; in data set [2], 25%.
